The subject of this assay is hα3β4 nAChRs. The class given is cell-based, human.

As to “Czon1107-G1R: Arg-scan analogue of Czon1107 (RFRSPCPPFC)”, the “inhibition of ACh-evoked current amplitude” value was ~ 50%.
For “Czon1107-P5R: Arg-scan analogue of Czon1107 (GFRSRCPPFC)”, the “activity at hα3β4 nAChRs compared with wild-type Czon1107 (in words)” value was “No significant change in activity”.
As for “Czon1107-F9A: Ala-scan analogue of Czon1107 (GFRSPCPPAC)”, the “activity at hα3β4 nAChRs compared with wild-type Czon1107 (in words)” value is on record as “slight potency decrease”.
For “Czon1107-P7R: Arg-scan analogue of Czon1107 (GFRSPCRPFC)”, the “inhibition of ACh-evoked current amplitude” value was ~ 50%.
As to “Czon1107-P8R: Arg-scan analogue of Czon1107 (GFRSPCPRFC)”, the “activity at hα3β4 nAChRs compared with wild-type Czon1107 (in words)” value is given as “No significant change in activity”.
